Our source for the EC50 values is patent US11155525B2 (Sanford Burnham Prebys Medical Discovery Institute, priority 2015, dated 2021).

The target in this assay is T1, human apelin receptor (Homo sapiens, UniProt P35414).
T1 construct: host or cells: CHO cells
T1 sequence (P35414 1-380): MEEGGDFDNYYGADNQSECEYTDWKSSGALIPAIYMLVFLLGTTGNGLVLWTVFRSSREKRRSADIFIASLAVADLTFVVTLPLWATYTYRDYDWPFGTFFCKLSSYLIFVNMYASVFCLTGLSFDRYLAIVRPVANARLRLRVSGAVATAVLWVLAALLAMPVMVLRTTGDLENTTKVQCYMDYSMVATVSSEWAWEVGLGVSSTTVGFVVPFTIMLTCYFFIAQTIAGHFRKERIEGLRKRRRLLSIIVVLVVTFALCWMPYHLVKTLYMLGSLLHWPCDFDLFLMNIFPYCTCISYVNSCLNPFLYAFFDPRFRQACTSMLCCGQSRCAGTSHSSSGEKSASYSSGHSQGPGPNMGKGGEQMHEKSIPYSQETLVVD
Nature of the assay: Measurement of apelin receptor agonist activity (cell-based assay determining the amount of intracellular cAMP). Particulars: CHO cells stably expressing the human apelin receptor, Forskolin 10 μM, 30 minutes, 100% efficacy = [Pyr1]-apelin-13 0.300 μM, concentration giving 50% efficacy. How it is done:
Measurement of Apelin Receptor Agonist Activity
The apelin receptor agonist activity of the compound represented by formula (I) or (II) of the present invention was measured by cell-based assay for determining the amount of intracellular cAMP.
CHO cells (DiscoveRx Corp.) stably expressing the human apelin receptor were inoculated to wells of a microtiter plate and cultured overnight at 37° C. under conditions of 5% CO2.
Each test compound and Forskolin were added to the wells at the same time. Specifically, the test compound dissolved in DMSO was diluted with a Forskolin-containing buffer [DMEM/F-12, HEPES, no phenol red (#11039, GIBCO)] to prepare a mixed solution containing the test compound at a final concentration of […] (common ratio: 3, serial dilution: 11), Forskolin at a final concentration of 10 μM, and DMSO at a final concentration of 0.3% v/v, which was then added to the wells (N═4).
After 30 minutes, the cells were lysed, and HitHunter cAMP XS+ Assay #90-0075L (DiscoveRx Corp.) was added to the cell lysate. The mixture was left overnight, and the resulting chemiluminescence signals were then detected using Analyst GT (Molecular Devices LLC.) to determine the amount of cAMP.
The amount of cAMP determined by the addition of a positive control [Pyr1]-apelin-13 (final concentration: 0.300 μM) and Forskolin (final concentration: 10 μM) at the same time was used as an index to define 100% efficacy. The amount of cAMP determined by the addition of Forskolin (final concentration: 10 μM) alone was used as an index to define 0% efficacy.
A dose response curve was prepared from the final concentration of the test compound and the determined amount of cAMP using Sigmaplot 12.0.
`COc1cccc(OC)c1-n1c(COCC(=O)O)nnc1-c1ccc(C)o1` [Example 67, {[4-(2,6-Dimethoxyphenyl)-5-(5-methylfuran-2-yl)-4H-1,2,4-triazol-3-yl]methoxy}acetic acid] returned a half-maximal effective concentration (EC50) of 774 nM. The value for `COc1cccc(OC)c1-n1c(SCc2n[nH]c(=O)o2)nnc1-c1ccc(C)o1` [Example 101, 5-({[4-(2,6-Dimethoxyphenyl)-5-(5-methylfuran-2-yl)-4H-1,2,4-triazol-3-yl]sulfanyl}methyl)-1,3,4-oxadiazol-2(3H)-one] was 587 nM. The value for `COc1cccc(OC)c1-n1c(/C=C/C(=O)N2CCC[C@H]2C(=O)O)nnc1-c1ccc(C)o1` [Example 93, 1-{(2E)-3-[4-(2,6-Dimethoxyphenyl)-5-(5-methylfuran-2-yl)-4H-1,2,4-triazol-3-yl]prop-2-enoyl}-L-proline] was 364 nM. `COc1cccc(OC)c1-n1c(SCc2cccnn2)nnc1-c1ccc(C)o1` [Example 75, 3-({[4-(2,6-Dimethoxyphenyl)-5-(5-methylfuran-2-yl)-4H-1,2,4-triazol-3-yl]sulfanyl}methyl)pyridazine] came in with a 50% effective concentration (EC50) of 128 nM. Next, `COc1cccc(OC)c1-n1c(SCC(N)=O)nnc1-c1ccc(C)o1` [Example 83, 2-{[4-(2,6-Dimethoxyphenyl)-5-(5-methylfuran-2-yl)-4H-1,2,4-triazol-3-yl]sulfanyl}acetamide]: 219 nM; `COc1cccc(OC)c1-n1c(-c2ccc(C)o2)nnc1S(C)(=O)=O` [Example 86, 4-(2,6-Dimethoxyphenyl)-3-(5-methylfuran-2-yl)-5-(methylsulfonyl)-4H-1,2,4-triazole]: 2020 nM. Next, `COc1cccc(OC)c1-n1c(SCC(=O)O)nnc1-c1cccnc1` [Example 27, {[4-(2,6-Dimethoxyphenyl)-5-(pyridin-3-yl)-4H-1,2,4-triazol-3-yl]sulfanyl}acetic acid]: 2870 nM; `COC(=O)[C@@H]1C[C@@H](O)CN1C(=O)/C=C/c1nnc(-c2ccc(C)o2)n1-c1c(OC)cccc1OC` [Example 91, Methyl (4R)-1-{(2E)-3-[4-(2,6-dimethoxyphenyl)-5-(5-methylfuran-2-yl)-4H-1,2,4-triazol-3-yl]prop-2-enoyl}-4-hydroxy-L-prolinate]: 351 nM. Next, `COc1cccc(OC)c1-n1c(SC(C)C(=O)O)nnc1-c1ccc(C)o1` (stereo not drawn) [Example 41, 2-{[4-(2,6-Dimethoxyphenyl)-5-(5-methylfuran-2-yl)-4H-1,2,4-triazol-3-yl]sulfanyl}propanoic acid]: 45 nM; `COC(=O)c1ccccc1-c1nnc(-c2ccc(C)o2)n1-c1c(OC)cccc1OC` [Example 58, Methyl 2-[4-(2,6-dimethoxyphenyl)-5-(5-methyl-2-furyl)-4H-1,2,4-triazol-3-yl]benzoate]: 2800 nM; `COc1cccc(OC)c1-n1c(OCC(OC)OC)nnc1-c1ccc(C)o1` [Example 87, 3-(2,2-Dimethoxyethoxy)-4-(2,6-dimethoxyphenyl)-5-(5-methylfuran-2-yl)-4H-1,2,4-triazole]: 744 nM.

In turn, `CCOC(=O)/C=C/c1nnc(-c2ccc(C)o2)n1-c1c(OC)cccc1OC` [Example 8, Ethyl (2E)-3-[4-(2,6-dimethoxyphenyl)-5-(5-methylfuran-2-yl)-4H-1,2,4-triazol-3-yl]prop-2-enoate] gave a half-maximal effective concentration (EC50) of 1570 nM.

`COc1cccc(OC)c1-n1c(SCC(=O)O)nnc1-c1ccc(C)o1` [Example 5, {[4-(2,6-Dimethoxyphenyl)-5-(5-methylfuran-2-yl)-4H-1,2,4-triazol-3-yl]sulfanyl}acetic acid] displayed an EC50 of 26 nM.

The molecule `COc1cccc(OC)c1-n1c(SC(Cc2ccccc2)C(=O)O)nnc1-c1ccc(C)o1` (stereo not drawn) [Example 39, 2-{[4-(2,6-Dimethoxyphenyl)-5-(5-methylfuran-2-yl)-4H-1,2,4-triazol-3-yl]sulfanyl}-3-phenylpropanoic acid] registered a concentration for a half-maximal effect (EC50) of 11 nM. Next, `COc1cccc(OC)c1-n1c(CNS(=O)(=O)c2ccc(C)cc2)nnc1-c1ccc(C)o1` [Example 107, N-{[4-(2,6-Dimethoxyphenyl)-5-(5-methylfuran-2-yl)-4H-1,2,4-triazol-3-yl]methyl}-4-methylbenzenesulfonamide]: 668 nM. In the case of `COc1cccc(OC)c1-n1c(SCC(=O)O)nnc1-c1cccs1` [Example 30, {[4-(2,6-Dimethoxyphenyl)-5-(thiophen-2-yl)-4H-1,2,4-triazol-3-yl]sulfanyl}acetic acid], the EC50 was 332 nM.

The molecule `COc1cccc(OC)c1-n1c(SCC(=O)O)nnc1-c1ccco1` [Example 61, {[4-(2,6-Dimethoxyphenyl)-5-(furan-2-yl)-4H-1,2,4-triazol-3-yl]sulfanyl}acetic acid] came in with a half-maximal effective concentration (EC50) of 412 nM. Next, `COc1cccc(OC)c1-n1c(/C=C/C(C)O)nnc1-c1ccc(C)o1` (stereo not drawn) [Example 23, (3E)-4-[4-(2,6-Dimethoxyphenyl)-5-(5-methylfuran-2-yl)-4H-1,2,4-triazol-3-yl]but-3-en-2-ol]: 271 nM. The molecule `COc1cccc(OC)c1-n1c(/C=C/C(N)=O)nnc1-c1ccc(C)o1` [Example 19, (2E)-3-[4-(2,6-Dimethoxyphenyl)-5-(5-methylfuran-2-yl)-4H-1,2,4-triazol-3-yl]prop-2-enamide] showed an EC50 of 171 nM. The value for `COc1cccc(OC)c1-n1c(SCP(=O)(OC(C)C)OC(C)C)nnc1-c1ccc(C)o1` [Example 96, Dipropan-2-yl ({[4-(2,6-dimethoxyphenyl)-5-(5-methylfuran-2-yl)-4H-1,2,4-triazol-3-yl]sulfanyl}methyl)phosphonate] was 605 nM; that for `COc1cccc(OC)c1-n1c(SCc2n[nH]c(=O)[nH]2)nnc1-c1ccc(C)o1` [Example 100, 5-({[4-(2,6-Dimethoxyphenyl)-5-(5-methylfuran-2-yl)-4H-1,2,4-triazol-3-yl]sulfanyl}methyl)-2,4-dihydro-3H-1,2,4-triazol-3-one] was 957 nM; that for `COc1cccc(OC)c1-n1c(SCc2ccccc2C(=O)O)nnc1-c1ccc(C)o1` [Example 78, 2-({[4-(2,6-Dimethoxyphenyl)-5-(5-methylfuran-2-yl)-4H-1,2,4-triazol-3-yl]sulfanyl}methyl)benzoic acid] was 34 nM. On to `COc1cccc(OC)c1-n1c(SCCCC(=O)O)nnc1-c1ccc(C)o1` [Example 22, 4-{[4-(2,6-Dimethoxyphenyl)-5-(5-methylfuran-2-yl)-4H-1,2,4-triazol-3-yl]sulfanyl}butanoic acid], for which the EC50 came out at 87 nM.

`COc1cccc(OC)c1-n1c(/C=C/C(=O)N(C)C)nnc1-c1ccc(C)o1` [Example 21, (2E)-3-[4-(2,6-Dimethoxyphenyl)-5-(5-methylfuran-2-yl)-4H-1,2,4-triazol-3-yl]-N,N-dimethylprop-2-enamide] had a half-maximal effective concentration (EC50) of 539 nM. As for `COc1cccc(OC)c1-n1c(SCc2cc(=O)n(C)c(=O)n2C)nnc1-c1ccc(C)o1` [Example 15, 6-({[4-(2,6-Dimethoxyphenyl)-5-(5-methylfuran-2-yl)-4H-1,2,4-triazol-3-yl]sulfanyl}methyl)-1,3-dimethylpyrimidine-2,4(1H,3H)-dione], the concentration giving a half-maximal response (EC50) was 164 nM. Next, `COc1cccc(OC)c1-n1c(SCC(=O)O)nnc1-c1ccoc1` [Example 62, {[4-(2,6-Dimethoxyphenyl)-5-(furan-3-yl)-4H-1,2,4-triazol-3-yl]sulfanyl}acetic acid]: 808 nM; `COc1cccc(OC)c1-n1c(/C=C/C#N)nnc1-c1ccc(C)o1` [Example 53, (2E)-3-[4-(2,6-Dimethoxyphenyl)-5-(5-methylfuran-2-yl)-4H-1,2,4-triazol-3-yl]prop-2-enenitrile]: 2650 nM. Take `COc1cccc(OC)c1-n1c(-c2ccc(C(=O)O)cc2)nnc1-c1ccc(C)o1` [Example 48, 4-[4-(2,6-Dimethoxyphenyl)-5-(5-methylfuran-2-yl)-4H-1,2,4-triazol-3-yl]benzoic acid]: the concentration for a half-maximal effect (EC50) was determined as 22 nM. Next, `COc1cccc(OC)c1-n1c(CSc2nnc[nH]2)nnc1-c1ccc(C)o1` [Example 68, 4-(2,6-Dimethoxyphenyl)-3-(5-methylfuran-2-yl)-5-[(4H-1,2,4-triazol-3-ylsulfanyl)methyl]-4H-1,2,4-triazole]: 1330 nM; `Cc1ccc(-c2nnc(SCC(=O)O)n2-c2c(Cl)cccc2Cl)o1` [Example 32, {[4-(2,6-Dichlorophenyl)-5-(5-methylfuran-2-yl)-4H-1,2,4-triazol-3-yl]sulfanyl}acetic acid]: 3980 nM.

One may read the EC50 as the concentration at which the effect is half-maximal. Read a low EC50 as greater potency.
